Test results reported in ChEMBL document CHEMBL1136462, “The effect of remote chirality on the antibacterial activity of indolinyl, tetrahydroquinolyl and dihydrobenzoxazinyl oxazolidinones” (Bioorg Med Chem Lett, 2003).
In brackets after ≈: the same amount, converted by molar mass.

What was measured:
Enterococcus faecalis = experiment: In vitro antibacterial activity against vancomycin susceptible Enterococcus faecalis UC19217 (VSEF); format: functional
[1] = test system: Staphylococcus epidermidis; experiment: In vitro antibacterial activity against methicillin resistant Staphylococcus epidermis US 12084 (MRSE); format: functional
Staphylococcus aureus [2] = experiment: In vitro antibacterial activity against Staphylococcus aureus UC12673 (SA2); format: functional
Haemophilus influenzae = experiment: In vitro antibacterial activity against ampicillin resistant Haemophilus influenzae 30063 (AMPR b-lactamase+); format: functional
Streptococcus pneumoniae = experiment: In vitro antibacterial activity against penicillin susceptible Streptococcus pneumoniae UC19912 (PSSP); format: functional
Moraxella catarrhalis = experiment: In vitro antibacterial activity against Moraxella catarrhalis 30607 (b-lactamase+).; format: functional
Staphylococcus aureus [3] = experiment: In vitro antibacterial activity against methicillin susceptible Staphylococcus aureus UC19213 (MSSA); (SA1); format: functional
[4] = Tmax of compound (19.76 mg/kg) after po administration was determined in Sprague-Dawley rat; format: ADME, organism-based; conditions: in vivo
Rattus norvegicus [5] = experiment: Half life of compound (9.84 mg/kg) after iv administration was determined in Sprague-Dawley rat; format: ADME, organism-based; conditions: in vivo
Rattus norvegicus [6] = experiment: Steady state volume distribution (Vss) of compound(9.84 mg/kg) after iv administration was determined in Sprague-Dawley rat; format: ADME, organism-based; conditions: in vivo
[7] = Maximum plasma concentration (Cmax) of compound (9.84 mg/kg) after iv administration was determined Sprague-Dawley rat; format: ADME, organism-based; set-up: dose 9.84 mg/kg, route intravenous
[8] = Oral bioavailability of compound (19.76 mg/kg) after po administration was determined in Sprague-Dawley rat; format: ADME, organism-based; conditions: in vivo
[9] = Half life of compound (9.84 mg/kg) after po administration was determined in Sprague-Dawley rat; format: ADME, organism-based; conditions: in vivo
[10] = Maximum plasma concentration (Cmax) of compound (19.76 mg/kg) after po administration was determined Sprague-Dawley rat; format: ADME, organism-based; set-up: dose 19.76 mg/kg, route oral
Rattus norvegicus [11] = experiment: Clearance (Cl) of compound (9.84 mg/kg) after iv administration was determined in Sprague-Dawley rat; format: ADME, organism-based; conditions: in vivo
Mus musculus [12] = experiment: In vivo efficacy of compound to protect the Staphylococcus aureus UC9213 infected mouse from death after po administration; format: functional
[13] = Maximum plasma concentration (Cmax) of compound (9.92 mg/kg) after iv administration was determined Sprague-Dawley rat; format: ADME, organism-based; set-up: dose 9.92 mg/kg, route intravenous
[14] = Oral bioavailability of compound (20.73 mg/kg) after po administration was determined in Sprague-Dawley rat; format: ADME, organism-based; conditions: in vivo
[15] = Clearance (Cl) of compound (9.92 mg/kg) after iv administration was determined in Sprague-Dawley rat; format: ADME, organism-based; conditions: in vivo
[16] = Half life of compound (9.92 mg/kg) after iv administration was determined in Sprague-Dawley rat; format: ADME, organism-based; conditions: in vivo
[17] = Tmax of compound (20.73 mg/kg) after po administration was determined in Sprague-Dawley rat; format: ADME, organism-based; conditions: in vivo
[18] = Half life of compound (20.73 mg/kg) after po administration was determined in Sprague-Dawley rat; format: ADME, organism-based; conditions: in vivo
[19] = Steady state volume distribution (Vss) of compound after iv administration was determined in Sprague-Dawley rat; format: ADME, organism-based; conditions: in vivo, read-out: Vss
[20] = Maximum plasma concentration (Cmax) of compound (20.73 mg/kg) after po administration was determined Sprague-Dawley rat; format: ADME, organism-based; set-up: dose 20.73 mg/kg, route oral
[21] = Tmax of compound (25 mg/kg) after po administration was determined in Sprague-Dawley rat; format: ADME, organism-based; conditions: in vivo
[22] = Clearance (Cl) of compound (10 mg/kg) after iv administration was determined in Sprague-Dawley rat; format: ADME, organism-based; conditions: in vivo
[23] = Maximum plasma concentration (Cmax) of compound (25 mg/kg) after po administration was determined Sprague-Dawley rat; format: ADME, organism-based; set-up: dose 25 mg/kg, route oral
Mus musculus [24] = experiment: In vivo efficacy of compound to protect the Staphylococcus aureus UC9213 infected mouse from death after sc administration; format: functional
[25] = Clearance (Cl) of compound (9.83 mg/kg) after iv administration was determined in Sprague-Dawley rat; format: ADME, organism-based; conditions: in vivo
[26] = Steady state volume distribution (Vss) of compound(9.83 mg/kg) after iv administration was determined in Sprague-Dawley rat; format: ADME, organism-based; conditions: in vivo, read-out: Vss
Mus musculus [27] = experiment: In vivo efficacy of compound against Staphylococcus aureus UC9213 was determined after peroral administration in mouse; format: functional; conditions: po
[28] = Maximum plasma concentration (Cmax) of compound (19.2 mg/kg) after po administration was determined Sprague-Dawley rat; format: ADME, organism-based; set-up: dose 19.2 mg/kg, route oral
[29] = Half life of compound (19.2 mg/kg) after po administration was determined in Sprague-Dawley rat; format: ADME, organism-based; conditions: in vivo
[30] = Maximum plasma concentration (Cmax) of compound (9.83 mg/kg) after iv administration was determined Sprague-Dawley rat; format: ADME, organism-based; set-up: dose 9.83 mg/kg, route intravenous
[31] = Half life of compound (9.83 mg/kg) after iv administration was determined in Sprague-Dawley rat; format: ADME, organism-based; conditions: in vivo
[32] = Tmax of compound (19.2 mg/kg) after po administration was determined in Sprague-Dawley rat; format: ADME, organism-based; conditions: in vivo
[33] = Oral bioavailability of compound (19.2 mg/kg) after po administration was determined in Sprague-Dawley rat; format: ADME, organism-based; conditions: in vivo

Compound	MIC (Enterococcus faecalis) [µg/mL]	MIC [1] [µg/mL]	MIC (Staphylococcus aureus [2]) [µg/mL]	MIC (Haemophilus influenzae) [µg/mL]	MIC (Streptococcus pneumoniae) [µg/mL]	MIC (Moraxella catarrhalis) [µg/mL]	MIC (Staphylococcus aureus [3]) [µg/mL]	further results
C/C(S)=N/C[C@H]1CN(c2ccc3c(c2)CC[C@H](C)N3C=O)C(=O)O1	2 (≈ 5.76 µM)	< 0.5	1 (≈ 2.88 µM)	16 (≈ 46.1 µM)	< 0.5	2 (≈ 5.76 µM)	1 (≈ 2.88 µM)	–
CC(=O)NC[C@H]1CN(c2ccc3c(c2)OC[C@H](C)N3C=O)C(=O)O1	32 (≈ 96 µM)	< 4	8 (≈ 24 µM)	64 (≈ 192 µM)	< 4	32 (≈ 96 µM)	8 (≈ 24 µM)	–
CC(=O)NC[C@H]1CN(c2ccc3c(c2)OC[C@@H](C)N3C=O)C(=O)O1	4 (≈ 12 µM)	< 1	2 (≈ 6 µM)	64 (≈ 192 µM)	< 1	8 (≈ 24 µM)	4 (≈ 12 µM)	–
CC(=O)NC[C@H]1CN(c2ccc3c(c2)C[C@H](C)N3C=O)C(=O)O1	16 (≈ 50.4 µM)	4 (≈ 12.6 µM)	8 (≈ 25.2 µM)	> 64	4 (≈ 12.6 µM)	> 64	8 (≈ 25.2 µM)	–
CC(=O)NC[C@H]1CN(c2ccc3c(c2)CC[C@@H](C)N3C=O)C(=O)O1	1 (≈ 3.02 µM)	< 0.5	1 (≈ 3.02 µM)	32 (≈ 96.6 µM)	< 0.5	4 (≈ 12.1 µM)	2 (≈ 6.04 µM)	–
CC(=O)NC[C@H]1CN(c2ccc3c(c2)C[C@H](C)N3)C(=O)O1	64 (≈ 221 µM)	16 (≈ 55.3 µM)	32 (≈ 111 µM)	> 64	–	> 64	32 (≈ 111 µM)	–
C/C(S)=N/C[C@H]1CN(c2ccc3c(c2)CC[C@@H](C)N3C=O)C(=O)O1	< 0.5	< 0.5	< 0.5	4 (≈ 11.5 µM)	< 0.5	1 (≈ 2.88 µM)	< 0.5	–
C/C(S)=N/C[C@H]1CN(c2ccc3c(c2)C[C@@H](C)N3C(=O)CO)C(=O)O1	< 0.5	< 0.5	< 0.5	8 (≈ 22 µM)	< 0.5	2 (≈ 5.5 µM)	< 0.5	–
CC(=O)NC[C@H]1CN(c2ccc3c(c2)C[C@@H](C)N3)C(=O)O1	16 (≈ 55.3 µM)	4 (≈ 13.8 µM)	8 (≈ 27.6 µM)	> 64	4 (≈ 13.8 µM)	> 61	8 (≈ 27.6 µM)	–
CC(=O)NC[C@H]1CN(c2ccc3c(c2)C[C@@H](C)N3C=O)C(=O)O1	1 (≈ 3.15 µM)	< 0.5	1 (≈ 3.15 µM)	8 (≈ 25.2 µM)	< 0.5	4 (≈ 12.6 µM)	1 (≈ 3.15 µM)	Tmax [4]: 30 min; T1/2 (Rattus norvegicus [5]): 102 min; Vss (Rattus norvegicus [6]): 1.27 L/kg; Cmax [7]: 16100 ng/mL; bioavailability [8]: 56%; half-life [9]: 48 min; Cmax [10]: 7200 ng/mL; CL (Rattus norvegicus [11]): 1.84 mL/min/kg
C/C(S)=N/C[C@H]1CN(c2ccc3c(c2)OC[C@@H](C)N3C=O)C(=O)O1	1 (≈ 2.86 µM)	< 0.5	< 0.5	32 (≈ 91.6 µM)	0.5 (≈ 1.43 µM)	2 (≈ 5.72 µM)	< 0.5	–
CC(=O)NC[C@H]1CN(c2ccc3c(c2)CC[C@H](C)N3C=O)C(=O)O1	8 (≈ 24.1 µM)	< 2	4 (≈ 12.1 µM)	64 (≈ 193 µM)	< 2	16 (≈ 48.3 µM)	8 (≈ 24.1 µM)	–
CC(=O)NC[C@H]1CN(c2ccc3c(c2)C[C@@H](C)N3C(=O)CO)C(=O)O1	2 (≈ 5.76 µM)	0.5 (≈ 1.44 µM)	2 (≈ 5.76 µM)	8 (≈ 23 µM)	0.5 (≈ 1.44 µM)	8 (≈ 23 µM)	4 (≈ 11.5 µM)	ED50 (Mus musculus [12]): 1.8 mg/kg; Cmax [13]: 15100 ng/mL; bioavailability [14]: 55.4%; clearance [15]: 24 mL/min/kg; half-life [16]: 108 min; Tmax [17]: 30 min; half-life [18]: 168 min; Vd [19]: 1.28 L/kg; Cmax [20]: 3800 ng/mL
CC(=O)NC[C@H]1CN(c2ccc3c(c2)C[C@H](C)N3C(=O)CO)C(=O)O1	8 (≈ 23 µM)	2 (≈ 5.76 µM)	8 (≈ 23 µM)	> 16	1 (≈ 2.88 µM)	16 (≈ 46.1 µM)	8 (≈ 23 µM)	–
CC(=O)NC[C@H]1CN(c2ccc(N3CCOCC3)c(F)c2)C(=O)O1 [LINEZOLID]	–	< 1	–	16 (≈ 47.4 µM)	< 0.5	8 (≈ 23.7 µM)	–	Tmax [21]: 18 min; clearance [22]: 10.5 mL/min/kg; Cmax [23]: 15800 ng/mL; ED50 (Mus musculus [24]): 5.6 mg/kg
C/C(S)=N/C[C@H]1CN(c2ccc3c(c2)C[C@H](C)N3C=O)C(=O)O1	2 (≈ 6 µM)	1 (≈ 3 µM)	2 (≈ 6 µM)	32 (≈ 96 µM)	< 0.5	16 (≈ 48 µM)	2 (≈ 6 µM)	–
C/C(S)=N/C[C@H]1CN(c2ccc3c(c2)C[C@@H](C)N3C=O)C(=O)O1	< 0.5	< 0.5	< 0.5	2 (≈ 6 µM)	< 0.5	1 (≈ 3 µM)	< 0.5	clearance [25]: 28.9 mL/min/kg; Vd [26]: 0.64 L/kg; ED50 (Mus musculus [27]): 7.5 mg/kg; Cmax [28]: 1130 ng/mL; half-life [29]: 36.6 min; Cmax [30]: 13600 ng/mL; half-life [31]: 6 min; Tmax [32]: 30 min; bioavailability [33]: 30.8%
